From patent US11666608B2 (priority 2020, dated 2023) come the findings set out here.

For the assay, the system named is neutrophils isolated from peripheral blood. Put plainly: Neutrophil activation by E. coli EVs, neutrophil elastase secretion (ELISA). The assay is classed as cell-based. As to conditions: human neutrophils treated with E. coli EVs and test substance 24 hours, FIG. 8. As for the experimental part:
Specifically, 10 mL of blood was collected in a tube containing an ACD solution, the blood was carefully added over 20 mL of Lymphoprep and centrifuged. After centrifugation, a red blood layer was collected and mixed with 12 mL of dextran, followed by standing at room temperature for 45 minutes. After layer separation, 40 mL of 1×HBSS was added to the supernatant and centrifuged again, and red blood cells were removed with autoclaved Millipore water, and then neutrophils were isolated using a neutrophil isolation kit (MACS). […] As a positive control drug, dexamethasone (Dex) was treated.

SMILES strings stand for the structures.

With `C[C@@H]1C[C@H]2[C@@H]3CCC4=CC(=O)C=C[C@]4(C)[C@@]3(F)[C@@H](O)C[C@]2(C)[C@@]1(O)C(=O)CO` [dexamethasone], the “secretion of NE (neutrophil elastase), neutrophil activation indicator” value is “did not inhibit”.
